Laboratory results: publication PMC6979384, “Characterization of the plant homeodomain (PHD) reader family for their histone tail interactions” (Epigenetics & Chromatin, 2020)
Where no end group is shown, it is not given here. [ ]: non-standard residue; d: D form. pT = C[C@@H](OP(=O)(O)O)[C@H](N)C(=O)O; Lys(Me) = CNCCCC[C@H](N)C(=O)O

Key:
Experiment in all cases: Histone peptide microarray
Assay type in all cases: binding, human
Details in all cases: sheet "Array Heatmap"
AIRE (PP) = tested on: AIRE (PP)
Method in brief: (§1)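 Each reader, produced as a GST fusion and purified, was tested at 0.5 μM on synthetic histone peptides (293 in total) carrying single or combinatorial marks. Intensities averaged over four replicates.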

BAZ2B = tested on: BAZ2B
Method in brief: as §1

BPTF (PB) = tested on: BPTF (PB)
Method in brief: as §1

CHD4 (PPCC) = tested on: CHD4 (PPCC)
Method in brief: as §1

CHD5 (PCC) = tested on: CHD5 (PCC)
Method in brief: as §1

CHD5 (PPCC) = tested on: CHD5 (PPCC)
Method in brief: as §1

DIDO1 = tested on: DIDO1
Method in brief: as §1

DPF2 (PPC2W2) = tested on: DPF2 (PPC2W2)
Method in brief: as §1

ING1 = tested on: ING1
Method in brief: as §1

ING2 = tested on: ING2
Method in brief: as §1

ING3 = tested on: ING3
Method in brief: as §1

ING4 = tested on: ING4
Method in brief: as §1

ING5 = tested on: ING5
Method in brief: as §1

KDM4C (TTP) = tested on: KDM4C (TTP)
Method in brief: as §1

KDM5A (1) = tested on: KDM5A (1)
Method in brief: as §1

KDM5A (3) = tested on: KDM5A (3)
Method in brief: as §1

KDM5B (1) = tested on: KDM5B (1)
Method in brief: as §1

KDM5B (3) = tested on: KDM5B (3)
Method in brief: as §1

KDM7A = tested on: KDM7A
Method in brief: as §1

MLL5 = tested on: MLL5
Method in brief: as §1

MORC3 (CW) = tested on: MORC3 (CW)
Method in brief: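 Binding read as mean relative signal from 4 replicates; microarray held 293 synthetic histone peptides with single or combinatorial PTMs. Each GST-tagged PHD reader was applied at 0.5 μM using the optimized Petell protocol.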

PHF13 = tested on: PHF13
Method in brief: as §1

PHF21A = tested on: PHF21A
Method in brief: as §1

PHF23 = tested on: PHF23
Method in brief: as §1

PHF2 = tested on: PHF2
Method in brief: as §1

PHF8 = tested on: PHF8
Method in brief: as §1

PHRF1 (RP) = tested on: PHRF1 (RP)
Method in brief: as §1

RAG2 = tested on: RAG2
Method in brief: as §1

SP140L = tested on: SP140L
Method in brief: as §1

TAF3 = tested on: TAF3
Method in brief: as §1

TRIM66 (PB) = tested on: TRIM66 (PB)
Method in brief: as §1

Substance: H3K4ac + K9me2 + K14ac + K18ac: H3 1-20
- Array Heatmap signal, AIRE (PP) (AIRE (PP); GST-tagged AIRE (PP), arrays performed twice, total replicate number n = 4): 0.5959
- Array Heatmap signal, BAZ2B (BAZ2B; GST-tagged BAZ2B, arrays performed twice, total replicate number n = 4): 0.5255
- Array Heatmap signal, BPTF (PB) (BPTF (PB); GST-tagged BPTF (PB), arrays performed twice, total replicate number n = 4): 0.3687
- Array Heatmap signal, CHD4 (PPCC) (CHD4 (PPCC); GST-tagged CHD4 (PPCC), arrays performed twice, total replicate number n = 4): 0.5924
- Array Heatmap signal, CHD5 (PCC) (CHD5 (PCC); GST-tagged CHD5 (PCC), arrays performed twice, total replicate number n = 4): 0.8289
- Array Heatmap signal, CHD5 (PPCC) (CHD5 (PPCC); GST-tagged CHD5 (PPCC), arrays performed twice, total replicate number n = 4): 0.5961
- Array Heatmap signal, DIDO1 (DIDO1; GST-tagged DIDO1, arrays performed twice, total replicate number n = 4): 0.6996
- Array Heatmap signal, DPF2 (PPC2W2) (DPF2 (PPC2W2); GST-tagged DPF2 (PPC2W2), arrays performed twice, total replicate number n = 4): 0.7053
- Array Heatmap signal, ING1 (ING1; GST-tagged ING1, arrays performed twice, total replicate number n = 4): 0.5602
- Array Heatmap signal, ING2 (ING2; GST-tagged ING2, arrays performed twice, total replicate number n = 4): 0.6022
- Array Heatmap signal, ING3 (ING3; GST-tagged ING3, arrays performed twice, total replicate number n = 4): 0.5023
- Array Heatmap signal, ING4 (ING4; GST-tagged ING4, arrays performed twice, total replicate number n = 4): 0.4857
- Array Heatmap signal, ING5 (ING5; GST-tagged ING5, arrays performed twice, total replicate number n = 4): 0.3863
- Array Heatmap signal, KDM4C (TTP) (KDM4C (TTP); GST-tagged KDM4C (TTP), arrays performed twice, total replicate number n = 4): 0.5332
- Array Heatmap signal, KDM5A (1) (KDM5A (1); GST-tagged KDM5A (1), arrays performed twice, total replicate number n = 4): 0.4994
- Array Heatmap signal, KDM5A (3) (KDM5A (3); GST-tagged KDM5A (3), arrays performed twice, total replicate number n = 4): 0.4792
- Array Heatmap signal, KDM5B (1) (KDM5B (1); GST-tagged KDM5B (1), arrays performed twice, total replicate number n = 4): 0.6474
- Array Heatmap signal, KDM5B (3) (KDM5B (3); GST-tagged KDM5B (3), arrays performed twice, total replicate number n = 4): 0.5157
- Array Heatmap signal, KDM7A (KDM7A; GST-tagged KDM7A, arrays performed twice, total replicate number n = 4): 0.3693
- Array Heatmap signal, MLL5 (MLL5; GST-tagged MLL5, arrays performed twice, total replicate number n = 4): 0.5581
- Array Heatmap signal, MORC3 (CW) (MORC3 (CW); GST-tagged MORC3 (CW), arrays performed twice, total replicate number n = 4): 0.4166
- Array Heatmap signal, PHF13 (PHF13; GST-tagged PHF13, arrays performed twice, total replicate number n = 4): 0.6376
- Array Heatmap signal, PHF21A (PHF21A; GST-tagged PHF21A, arrays performed twice, total replicate number n = 4): 0.517
- Array Heatmap signal, PHF23 (PHF23; GST-tagged PHF23, arrays performed twice, total replicate number n = 4): 0.5641
- Array Heatmap signal, PHF2 (PHF2; GST-tagged PHF2, arrays performed twice, total replicate number n = 4): 0.5092
- Array Heatmap signal, PHF8 (PHF8; GST-tagged PHF8, arrays performed twice, total replicate number n = 4): 0.3959
- Array Heatmap signal, PHRF1 (RP) (PHRF1 (RP); GST-tagged PHRF1 (RP), arrays performed twice, total replicate number n = 4): 0.5426
- Array Heatmap signal, RAG2 (RAG2; GST-tagged RAG2, arrays performed twice, total replicate number n = 4): 0.2604
- Array Heatmap signal, SP140L (SP140L; GST-tagged SP140L, arrays performed twice, total replicate number n = 4): 0.3786
- Array Heatmap signal, TAF3 (TAF3; GST-tagged TAF3, arrays performed twice, total replicate number n = 4): 0.2754
- Array Heatmap signal, TRIM66 (PB) (TRIM66 (PB); GST-tagged TRIM66 (PB), arrays performed twice, total replicate number n = 4): 0.6234

Substance: H3.3T32pK36me1 (27-45): H3.3 27-45 (KSAPS[pT]GGV[Lys(Me)]KPHRYRPGT; UniProt P84243 28-46, looked up, fragment)
- Array Heatmap value (peptide array signal) (AIRE (PP); AIRE (PP), each array performed twice, total n = 4): 0.3866
- Array Heatmap value (peptide array signal) (BAZ2B; BAZ2B, each array performed twice, total n = 4): 0.3924
- Array Heatmap value (peptide array signal) (BPTF (PB); BPTF (PB), each array performed twice, total n = 4): 0.2876
- Array Heatmap value (peptide array signal) (CHD4 (PPCC); CHD4 (PPCC), each array performed twice, total n = 4): 0.5131
- Array Heatmap value (peptide array signal) (CHD5 (PCC); CHD5 (PCC), each array performed twice, total n = 4): 0.7362
- Array Heatmap value (peptide array signal) (CHD5 (PPCC); CHD5 (PPCC), each array performed twice, total n = 4): 0.4567
- Array Heatmap value (peptide array signal) (DIDO1; DIDO1, each array performed twice, total n = 4): 0.6188
- Array Heatmap value (peptide array signal) (DPF2 (PPC2W2); DPF2 (PPC2W2), each array performed twice, total n = 4): 0.6269
- Array Heatmap value (peptide array signal) (ING1; ING1, each array performed twice, total n = 4): 0.4774
- Array Heatmap value (peptide array signal) (ING2; ING2, each array performed twice, total n = 4): 0.5942
- Array Heatmap value (peptide array signal) (ING3; ING3, each array performed twice, total n = 4): 0.3966
- Array Heatmap value (peptide array signal) (ING4; ING4, each array performed twice, total n = 4): 0.3862
- Array Heatmap value (peptide array signal) (ING5; ING5, each array performed twice, total n = 4): 0.288
- Array Heatmap value (peptide array signal) (KDM4C (TTP); KDM4C (TTP), each array performed twice, total n = 4): 0.4138
- Array Heatmap value (peptide array signal) (KDM5A (1); KDM5A (1), each array performed twice, total n = 4): 0.4102
- Array Heatmap value (peptide array signal) (KDM5A (3); KDM5A (3), each array performed twice, total n = 4): 0.429
- Array Heatmap value (peptide array signal) (KDM5B (1); KDM5B (1), each array performed twice, total n = 4): 0.6155
- Array Heatmap value (peptide array signal) (KDM5B (3); KDM5B (3), each array performed twice, total n = 4): 0.4083
- Array Heatmap value (peptide array signal) (KDM7A; KDM7A, each array performed twice, total n = 4): 0.3406
- Array Heatmap value (peptide array signal) (MLL5; MLL5, each array performed twice, total n = 4): 0.508
- Array Heatmap value (peptide array signal) (MORC3 (CW); MORC3 (CW), each array performed twice, total n = 4): 0.3018
- Array Heatmap value (peptide array signal) (PHF13; PHF13, each array performed twice, total n = 4): 0.5172
- Array Heatmap value (peptide array signal) (PHF21A; PHF21A, each array performed twice, total n = 4): 0.4142
- Array Heatmap value (peptide array signal) (PHF23; PHF23, each array performed twice, total n = 4): 0.4636
- Array Heatmap value (peptide array signal) (PHF2; PHF2, each array performed twice, total n = 4): 0.4286
- Array Heatmap value (peptide array signal) (PHF8; PHF8, each array performed twice, total n = 4): 0.3083
- Array Heatmap value (peptide array signal) (PHRF1 (RP); PHRF1 (RP), each array performed twice, total n = 4): 0.3716
- Array Heatmap value (peptide array signal) (RAG2; RAG2, each array performed twice, total n = 4): 0.206
- Array Heatmap value (peptide array signal) (SP140L; SP140L, each array performed twice, total n = 4): 0.3216
- Array Heatmap value (peptide array signal) (TAF3; TAF3, each array performed twice, total n = 4): 0.2218
- Array Heatmap value (peptide array signal) (TRIM66 (PB); TRIM66 (PB), each array performed twice, total n = 4): 0.5132
